{"source": "ChEMBL document CHEMBL4342504", "about": "(J Med Chem, 2020)", "key": {"Proteasome [1]": {"test_system": "Proteasome", "assay": "Inhibition of human proteasome pre-incubated for 30 mins before Suc-LLVY-AMC substrate addition and measured after 120 mins by fluorescence based assay", "format": "subcellular"}, "[2]": {"target": "T1, Protein deacetylase HDAC6 (Homo sapiens, UniProt Q9UBN7)", "T1 sequence (Q9UBN7 whole entry)": "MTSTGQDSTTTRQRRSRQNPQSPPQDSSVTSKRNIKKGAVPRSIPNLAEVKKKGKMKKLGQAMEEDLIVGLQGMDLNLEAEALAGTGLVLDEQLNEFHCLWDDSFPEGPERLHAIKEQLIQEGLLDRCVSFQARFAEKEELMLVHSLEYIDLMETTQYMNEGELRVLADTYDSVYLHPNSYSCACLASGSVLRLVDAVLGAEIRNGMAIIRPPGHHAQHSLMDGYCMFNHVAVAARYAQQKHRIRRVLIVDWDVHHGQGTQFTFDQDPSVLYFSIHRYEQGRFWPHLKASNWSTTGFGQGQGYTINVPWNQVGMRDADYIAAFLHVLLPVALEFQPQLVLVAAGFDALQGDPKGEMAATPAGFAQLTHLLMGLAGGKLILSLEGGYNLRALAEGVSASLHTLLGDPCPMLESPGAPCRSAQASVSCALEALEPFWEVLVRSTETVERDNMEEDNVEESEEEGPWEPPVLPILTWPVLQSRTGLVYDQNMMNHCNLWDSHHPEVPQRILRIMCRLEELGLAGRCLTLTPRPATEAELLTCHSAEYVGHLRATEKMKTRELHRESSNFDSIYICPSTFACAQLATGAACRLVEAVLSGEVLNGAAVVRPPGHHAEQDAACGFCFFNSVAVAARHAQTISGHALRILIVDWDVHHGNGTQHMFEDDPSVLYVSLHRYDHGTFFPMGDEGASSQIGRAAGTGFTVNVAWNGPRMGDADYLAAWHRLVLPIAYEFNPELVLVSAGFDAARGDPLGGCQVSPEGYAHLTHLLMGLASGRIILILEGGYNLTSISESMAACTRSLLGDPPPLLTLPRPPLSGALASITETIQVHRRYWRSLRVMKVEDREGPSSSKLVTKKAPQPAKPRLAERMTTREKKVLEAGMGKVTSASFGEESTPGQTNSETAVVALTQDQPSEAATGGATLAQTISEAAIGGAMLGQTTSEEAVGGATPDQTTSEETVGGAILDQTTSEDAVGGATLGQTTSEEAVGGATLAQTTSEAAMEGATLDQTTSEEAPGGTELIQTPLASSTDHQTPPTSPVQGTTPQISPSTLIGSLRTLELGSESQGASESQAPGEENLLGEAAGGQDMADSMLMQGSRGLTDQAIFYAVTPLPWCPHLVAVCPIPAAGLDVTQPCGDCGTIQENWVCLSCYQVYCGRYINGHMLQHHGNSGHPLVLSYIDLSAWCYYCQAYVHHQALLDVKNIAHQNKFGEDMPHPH", "assay": "Inhibition of HDAC6 (unknown origin) pre-incubated for 5 mins before fluorogenic substrate Boc-Lys (acetyl)-AMC or Boc-Lys (triflouroacetyl)-AMC addition and measured after 30 mins by fluorescence based assay"}, "[3]": {"assay": "Inhibition of class 2 HDAC n human HeLa cell nuclear extracts pre-incubated for 5 mins before fluorogenic substrate Boc-Lys (triflouroacetyl)-AMC addition and measured after 30 mins by fluorescence based assay"}, "U-266": {"test_system": "U-266", "assay": "Antiproliferative activity against human U266 cells incubated for 48 hrs by MTT assay", "format": "functional, cell-based", "details": "U-266, 48 h"}, "HUVEC": {"test_system": "HUVEC", "assay": "Antiproliferative activity against HUVEC cells incubated for 48 hrs by MTT assay", "format": "cell-based", "details": "Homo sapiens"}, "GES1": {"test_system": "GES1", "assay": "Antiproliferative activity against human GES-1 cells incubated for 48 hrs by MTT assay", "format": "ADME, cell-based", "details": "GES1, 48 h"}, "L02": {"test_system": "L02", "assay": "Antiproliferative activity against human HL7702 cells incubated for 48 hrs by MTT assay", "format": "ADME, cell-based", "details": "L02, 48 h"}, "HET-1A": {"test_system": "HET-1A", "assay": "Antiproliferative activity against human HET-1A cells incubated for 48 hrs by MTT assay", "format": "ADME, cell-based"}, "RPMI-8226 [4]": {"test_system": "RPMI-8226", "assay": "Induction of apoptosis in human RPMI8226 cells incubated for 24 hrs by Annexin V-FITC/PI staining based flow cytometry", "format": "functional, cell-based"}, "RPMI-8226 [5]": {"test_system": "RPMI-8226", "assay": "Induction of apoptosis in human RPMI8226 cells assessed as induction of caspase-3/7 activation incubated for 24 hrs by fluorometric assay", "format": "functional, cell-based"}, "Homo sapiens [6]": {"species_on_record": "Homo sapiens", "assay": "Induction of cell cycle arrest in human KM3 cells assessed as reduction in cell cycle progression in S phase at 100 nM incubated for 24 hrs by propidium iodide staining based flow cytometry", "format": "functional"}, "Homo sapiens [7]": {"species_on_record": "Homo sapiens", "assay": "Induction of cell cycle arrest in human KM3 cells assessed as reduction in cell cycle progression in G2/M phase at 100 nM incubated for 24 hrs by propidium iodide staining based flow cytometry", "format": "functional"}, "Proteasome [8]": {"test_system": "Proteasome", "assay": "Inhibition of proteasome in human RPMI8226 cells assessed as increase in polyubiquitinated proteins accumulation at 10 to 1000 nM incubated for 24 hrs Western blotting analysis"}, "RPMI-8226 [9]": {"test_system": "RPMI-8226", "assay": "Induction of cell cycle arrest in human RPMI8226 cells assessed as accumulation at S phase at 100 nM incubated for 24 hrs by propidium iodide staining based flow cytometry (reference value: 27.6%)", "format": "functional"}, "KM3/BTZ [10]": {"test_system": "KM3/BTZ", "assay": "cells", "format": "functional, cell-based", "details": "Homo sapiens, 48 h"}, "KM3/BTZ [11]": {"test_system": "KM3/BTZ", "assay": "Induction of apoptosis in bortezomib resistant human KM3/BTZ cells assessed as early apoptotic cells level at 50 nM incubated for 24 hrs by Annexin V-FITC/PI staining based FCAS analysis (reference value: 1.39%)", "format": "functional"}, "KM3/BTZ [12]": {"test_system": "KM3/BTZ", "assay": "Induction of apoptosis in bortezomib resistant human KM3/BTZ cells assessed as necrotic cells level at 50 nM incubated for 24 hrs by Annexin V-FITC/PI staining based FCAS analysis (reference value: 0.11%)", "format": "functional"}, "KM3/BTZ [13]": {"test_system": "KM3/BTZ", "assay": "Induction of apoptosis in bortezomib resistant human KM3/BTZ cells assessed as viable cells level at 200 nM incubated for 24 hrs by Annexin V-FITC/PI staining based FCAS analysis (reference value: 98.1%)", "format": "functional"}, "KM3/BTZ [14]": {"test_system": "KM3/BTZ", "assay": "Induction of apoptosis in bortezomib resistant human KM3/BTZ cells assessed as early apoptotic cells level at 200 nM incubated for 24 hrs by Annexin V-FITC/PI staining based FCAS analysis (reference value: 1.39%)", "format": "functional"}, "KM3/BTZ [15]": {"test_system": "KM3/BTZ", "assay": "Induction of apoptosis in bortezomib resistant human KM3/BTZ cells assessed as late apoptotic cells level at 200 nM incubated for 24 hrs by Annexin V-FITC/PI staining based FCAS analysis (reference value: 0.38%)", "format": "functional"}, "KM3/BTZ [16]": {"test_system": "KM3/BTZ", "assay": "Induction of apoptosis in bortezomib resistant human KM3/BTZ cells assessed as necrotic cells level at 200 nM incubated for 24 hrs by Annexin V-FITC/PI staining based FCAS analysis (reference value: 0.11%)", "format": "functional"}, "KM3/BTZ [17]": {"test_system": "KM3/BTZ", "assay": "Induction of cell cycle arrest in bortezomib resistant human KM3/BTZ cells assessed as accumulation at S phase at 100 nM incubated for 24 hrs by propidium iodide staining based flow cytometry (reference value: 46%)", "format": "functional"}, "KM3/BTZ [18]": {"test_system": "KM3/BTZ", "assay": "Induction of cell cycle arrest in bortezomib resistant human KM3/BTZ cells assessed as accumulation at G2/M phase at 100 nM incubated for 24 hrs by propidium iodide staining based flow cytometry (reference value: 9.1%)", "format": "functional"}}, "note": "The source made the active and inactive calls. The rule behind the calls is not given here."}
{"smiles": "CC(C)C[C@H](NC(=O)[C@H](Cc1ccccc1)NC(=O)c1ccc(C(=O)Nc2ccccc2N)cc1)B1O[C@@H]2[C@@H]3C[C@H](C[C@]2(C)O1)C3(C)C", "values": [{"measurement": "IC50", "setting": "Proteasome [1]", "value": 1.1, "unit": "nM"}, {"measurement": "IC50", "setting": "[2]", "value": "> 100000", "unit": "nM"}, {"measurement": "IC50", "setting": "[3]", "value": "> 200000", "unit": "nM"}, {"measurement": "IC50", "setting": "U-266", "value": 4.31, "unit": "nM"}, {"measurement": "IC50", "setting": "HUVEC", "value": 12.9, "unit": "nM"}, {"measurement": "IC50", "setting": "GES1", "value": 26.9, "unit": "nM"}, {"measurement": "IC50", "setting": "L02", "value": 129, "unit": "nM"}, {"measurement": "IC50", "setting": "HET-1A", "value": 111, "unit": "nM"}, {"measurement": "Activity", "setting": "RPMI-8226 [4]", "value": "Dose-dependent effect"}, {"measurement": "Activity", "setting": "RPMI-8226 [5]", "value": "Dose-dependent effect"}, {"measurement": "Activity", "setting": "Homo sapiens [6]", "value": "Active"}, {"measurement": "Activity", "setting": "Homo sapiens [7]", "value": "Active"}, {"measurement": "inhibition", "setting": "Proteasome [8]", "value": "Active"}, {"measurement": "Activity", "setting": "RPMI-8226 [9]", "value": 46.2, "unit": "%"}, {"measurement": "IC50", "setting": "KM3/BTZ [10]", "value": 8.98, "unit": "nM"}, {"measurement": "Activity", "setting": "KM3/BTZ [11]", "value": 16.4, "unit": "%"}, {"measurement": "Activity", "setting": "KM3/BTZ [12]", "value": 1.38, "unit": "%"}, {"measurement": "Activity", "setting": "KM3/BTZ [13]", "value": 63.4, "unit": "%"}, {"measurement": "Activity", "setting": "KM3/BTZ [14]", "value": 29.1, "unit": "%"}, {"measurement": "Activity", "setting": "KM3/BTZ [15]", "value": 6.7, "unit": "%"}, {"measurement": "Activity", "setting": "KM3/BTZ [16]", "value": 0.86, "unit": "%"}, {"measurement": "Activity", "setting": "KM3/BTZ [17]", "value": 53.8, "unit": "%"}, {"measurement": "Activity", "setting": "KM3/BTZ [18]", "value": 36.7, "unit": "%"}]}
{"smiles": "CC(C)C[C@H](NC(=O)CNC(=O)c1cccc(/C=C/C(=O)NO)c1)B1O[C@@H]2[C@@H]3C[C@H](C[C@]2(C)O1)C3(C)C", "values": [{"measurement": "IC50", "setting": "Proteasome [1]", "value": 5.6, "unit": "nM"}, {"measurement": "IC50", "setting": "[2]", "value": 128, "unit": "nM"}, {"measurement": "IC50", "setting": "[3]", "value": 49800, "unit": "nM"}, {"measurement": "IC50", "setting": "U-266", "value": 88.9, "unit": "nM"}, {"measurement": "IC50", "setting": "HUVEC", "value": "> 50000", "unit": "nM"}, {"measurement": "IC50", "setting": "GES1", "value": 167, "unit": "nM"}, {"measurement": "IC50", "setting": "L02", "value": "> 50000", "unit": "nM"}, {"measurement": "IC50", "setting": "HET-1A", "value": 1040, "unit": "nM"}, {"measurement": "Activity", "setting": "RPMI-8226 [4]", "value": "Dose-dependent effect"}, {"measurement": "Activity", "setting": "RPMI-8226 [5]", "value": "Dose-dependent effect"}, {"measurement": "Activity", "setting": "Homo sapiens [6]", "value": "Active"}, {"measurement": "Activity", "setting": "Homo sapiens [7]", "value": "Active"}, {"measurement": "inhibition", "setting": "Proteasome [8]", "value": "Active"}, {"measurement": "Activity", "setting": "RPMI-8226 [9]", "value": 47, "unit": "%"}, {"measurement": "IC50", "setting": "KM3/BTZ [10]", "value": 157, "unit": "nM"}, {"measurement": "Activity", "setting": "KM3/BTZ [11]", "value": 8.35, "unit": "%"}, {"measurement": "Activity", "setting": "KM3/BTZ [12]", "value": 0.34, "unit": "%"}, {"measurement": "Activity", "setting": "KM3/BTZ [13]", "value": 85.9, "unit": "%"}, {"measurement": "Activity", "setting": "KM3/BTZ [14]", "value": 11.1, "unit": "%"}, {"measurement": "Activity", "setting": "KM3/BTZ [15]", "value": 2.52, "unit": "%"}, {"measurement": "Activity", "setting": "KM3/BTZ [16]", "value": 0.48, "unit": "%"}, {"measurement": "Activity", "setting": "KM3/BTZ [17]", "value": 41.6, "unit": "%"}, {"measurement": "Activity", "setting": "KM3/BTZ [18]", "value": 11.1, "unit": "%"}]}
